Measurements reported in PubChem BioAssay AID1918948 (Molecular Pharmacology Branch, DTP, NCI, 2023).

Test system: K-562 leukemia growth, % test/control
Assay: Anticancer human tumor K-562 cell line growth inhibition;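 note: spheroids exposed to compounds for 7 days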;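 for viability, T/C: 100% = DMSO vehicle wells and lower values mean fewer viable cells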
Details: spheroids with HUVEC and MSC; for IC50: curve of first compound; for viability, T/C: stronger effect = lower value; active = viability on the fitted dose curve at most 10% of control; inactive = the rest
Source text: Multicellular complex tumor spheroid response to LSD1 Inhibitor Iadademstat in combination with a variety of drugs and investigational agents in selected tumor cell lines
The current study was undertaken to assess response to LSD1 inhibitors in combination with standard-of-care drugs and investigational agents in solid tumor complex spheroid models as well as in the K-562 leukemia. Complex spheroids include a stromal component modeled by human endothelial cells (HUVEC) and fibroblasts modeled by human mesenchymal stem cells (MSCs). The concentration ranges selected for each drug and investigational agent were based upon clinically achievable concentrations if the clinical Cmax of the agent was known.
Compounds. The drugs and investigational agents used in this study are listed on Table 1. All of the agents used, including staurosporine (NSC755774) and gemcitabine (NSC613327), were obtained from the Developmental Therapeutics Program, NCI. FDA-approved anticancer drugs are available from the NCI at http://dtp.nci.nih.gov/branches/dscb/oncology_drugset_explanation.html. Drugs and investigational agents were >95% pure by proton nuclear magnetic resonance (NMR) and liquid chromatography/mass spectrometry (LC/MS). Stock solutions were prepared at 400x in DMSO, stored at -70 degrees C, and diluted in fresh medium prior to their use. The final concentration of DMSO in cell culture wells never exceeded 0.25% (v/v). The FDA-approved anticancer drug set is available from the Developmental Therapeutics Program at https://dtp.cancer.gov/organization/dscb/obtaining/available_plates.htm. All drugs and investigational agents were tested over a range starting from a high concentration at or near the clinical Cmax and decreasing in half-log increments. If the clinical Cmax for an agent had not been determined, the highest concentration tested was 10 microM.
Cell Lines. The patient-derived cancer cell (PDC) lines: 292921-168-R-J2-PDC, K24384-001-R-PDC, and 521955-158-R2-J5-PDC pancreatic carcinomas, 556581-035-R-J1 ovarian carcinoma, 324938-238-R-J1-PDC, 855422-203-R-J1-PDC and 883617-216-R-J1-PDC urothelial bladder carcinomas, 743489-274-T-PDC renal cell carcinoma, 138582-R-J1 Merkel cell tumor, K60290-347-R-J1 and K57222-313-R-J1-PDC glioblastomas, 653999-131-R-J2-PDC, LG0703-F948-PDC, and 349418-098-R-PDC non-small cell lung carcinomas, 885512-296-R-J2-PDC, 171881-019-R-J1-PDC breast carcinomas and 186277-243-T-J2-PDC and 233499-124-R-J2-PDC colon carcinomas were obtained from the NCI Patient-Derived Models Repository (PDMR, https://pdmr.cancer.gov). The established cell lines NCI/ADR-RES (RRID:CVCL_14520 and OVCAR-5 (RRID:CVCL_1628) ovarian carcinomas, 786-O (RRID:CVCL_1051) and A498 (RRID:CVCL_A498) renal cell carcinoma, NCI-H211 (ATCC, cat. CRL-5824; RRID:CVCL_1529), NCI-H196 (ATCC, cat. CRL-5823, RRID:CVCL_1509), SW 1271 (ATCC, cat. CRL-2177, RRID:CVCL_1716) and NCI-H1876 (ATCC, cat. CRL-5902, RRID:CVCL_1503) small cell lung carcinomas, MDA-MB-231 (RRID:CVCL_0062) and MDA-MB-468 (RRID:CVCL_0419)breast carcinomas (10-12). Pooled donor human umbilical vein endothelial cells (HUVEC, Lonza, cat. CC-2519) and human mesenchymal stem cells (hMSC, Lonza, cat. PT-2501) were purchased from Lonza (Walkersville, MD).
Cell Culture. All cells were maintained in an incubator at 37 degrees C and 5% CO2 with 95% humidity. The PDC lines were cultured according to standard operating procedures established by the NCI PDMR (https://pdmr.cancer.gov). Briefly all PDCs were thawed and cultured in Matrigel-coated flasks prepared with a working solution of 1X Ham's F-12 nutrient mix, without supplementation (Invitrogen, Waltham, MA, cat. 11765054), 100 U/mL penicillin-streptomycin (Invitrogen, cat. 15140122), and 2.5% Matrigel (Corning Inc., Corning, NY, cat. 354248) for the first three passages. […]

COc1cc(C2c3cc4c(cc3C(OC3OC5COC(C)OC5C(O)C3O)C3COC(=O)C23)OCO4)cc(OC)c1O (stereo not given) + NC1CC1c1ccc(-c2cccc(O)c2)cc1
21.1 nM: IC50 (second compound 3.16 µM)
25.2 nM: IC50 (second compound 1 µM)
32.3 nM: IC50 (second compound 0.1 µM)
active: viability, T/C (second compound 0.1 µM, first compound 3 µM) 1.51% | viability, T/C (second compound 0.316 µM, first compound 0.949 µM) 4.21% | viability, T/C (second compound 0.316 µM, first compound 3 µM) 1.39% | viability, T/C (second compound 1 µM, first compound 0.949 µM) 3.44% | viability, T/C (second compound 1 µM, first compound 3 µM) 2.06% | viability, T/C (second compound 3.16 µM, first compound 0.949 µM) 3.6% | viability, T/C (second compound 3.16 µM, first compound 3 µM) 2.13% | viability, T/C (second compound 10 µM, first compound 0.949 µM) 2.21% | viability, T/C (second compound 10 µM, first compound 3 µM) 1.35%
12.4 nM: IC50 (second compound 10 µM)
inactive: viability, T/C (second compound 0.1 µM, first compound 0.00949 µM) 89.1% | viability, T/C (second compound 0.1 µM, first compound 0.03 µM) 34.1% | viability, T/C (second compound 0.1 µM, first compound 0.0949 µM) 40% | viability, T/C (second compound 0.1 µM, first compound 0.3 µM) 32.2% | viability, T/C (second compound 0.1 µM, first compound 0.949 µM) 5.98% | viability, T/C (second compound 0.316 µM, first compound 0.00949 µM) 82.5% | viability, T/C (second compound 0.316 µM, first compound 0.03 µM) 33.9% | viability, T/C (second compound 0.316 µM, first compound 0.0949 µM) 40% | viability, T/C (second compound 0.316 µM, first compound 0.3 µM) 26.1% | viability, T/C (second compound 1 µM, first compound 0.00949 µM) 76.1% | viability, T/C (second compound 1 µM, first compound 0.03 µM) 31.1% | viability, T/C (second compound 1 µM, first compound 0.0949 µM) 39% | viability, T/C (second compound 1 µM, first compound 0.3 µM) 22.8% | viability, T/C (second compound 3.16 µM, first compound 0.00949 µM) 68.8% | viability, T/C (second compound 3.16 µM, first compound 0.03 µM) 28.7% | viability, T/C (second compound 3.16 µM, first compound 0.0949 µM) 40.2% | viability, T/C (second compound 3.16 µM, first compound 0.3 µM) 20% | viability, T/C (second compound 10 µM, first compound 0.00949 µM) 57.5% | viability, T/C (second compound 10 µM, first compound 0.03 µM) 28.1% | viability, T/C (second compound 10 µM, first compound 0.0949 µM) 34.1% | viability, T/C (second compound 10 µM, first compound 0.3 µM) 14.8%
29.2 nM: IC50 (second compound 0.316 µM)
